What was measured:
Assay type in all cases: cell-based
[1] = target: T1, hVR1 (Homo sapiens, UniProt Q8NER1); test: cell-based; conditions: for activity at VR1: result in words
T1 construct: expressed in transfected cells; host or cells: HEK293 (transient)

[2] = system: wild type HEK293 cells; test: FLIPR intracellular calcium assay (Fluo-3) in wild type HEK293 cells; conditions: result in words
[3] = target: T2, hVR4 (Homo sapiens, UniProt Q9HBA0); test: FLIPR intracellular calcium assay (Fluo-3) in HEK293 cells transiently expressing hVR4; conditions: for effect on intracellular calcium: HEK293-hVR4 cells, result in words
T2 construct: expressed in transfected cells; host or cells: HEK293 (transient)
Method: HEK293 cells transiently expressing hVR1 or hVR4 were seeded into FLIPR96 plates at 25,000cells/well and cultured overnight. The cells were then loaded in medium containing 4microM Fluo-3 for 2hrs, at room temperature, in the dark. The cell plates were then washed 4x with Tyrode containing 1.5mM calcium and 0.2% BSA. Agonist and antagonist plates were prepared in the same buffer. Cells were preincubated with either antagonist or buffer at room temperature for 30 mins. Agonists additions and calcium measurements were made in the FLIPR (Smart et al., (2000) Br J. Pharmacol. 129, 227-230).

[4] = system: cells transfected with empty vector; test: FLIPR intracellular calcium assay (Fluo-3) in HEK293 cells transfected with empty vector; conditions: result in words

T2 sequence (Q9HBA0 whole entry): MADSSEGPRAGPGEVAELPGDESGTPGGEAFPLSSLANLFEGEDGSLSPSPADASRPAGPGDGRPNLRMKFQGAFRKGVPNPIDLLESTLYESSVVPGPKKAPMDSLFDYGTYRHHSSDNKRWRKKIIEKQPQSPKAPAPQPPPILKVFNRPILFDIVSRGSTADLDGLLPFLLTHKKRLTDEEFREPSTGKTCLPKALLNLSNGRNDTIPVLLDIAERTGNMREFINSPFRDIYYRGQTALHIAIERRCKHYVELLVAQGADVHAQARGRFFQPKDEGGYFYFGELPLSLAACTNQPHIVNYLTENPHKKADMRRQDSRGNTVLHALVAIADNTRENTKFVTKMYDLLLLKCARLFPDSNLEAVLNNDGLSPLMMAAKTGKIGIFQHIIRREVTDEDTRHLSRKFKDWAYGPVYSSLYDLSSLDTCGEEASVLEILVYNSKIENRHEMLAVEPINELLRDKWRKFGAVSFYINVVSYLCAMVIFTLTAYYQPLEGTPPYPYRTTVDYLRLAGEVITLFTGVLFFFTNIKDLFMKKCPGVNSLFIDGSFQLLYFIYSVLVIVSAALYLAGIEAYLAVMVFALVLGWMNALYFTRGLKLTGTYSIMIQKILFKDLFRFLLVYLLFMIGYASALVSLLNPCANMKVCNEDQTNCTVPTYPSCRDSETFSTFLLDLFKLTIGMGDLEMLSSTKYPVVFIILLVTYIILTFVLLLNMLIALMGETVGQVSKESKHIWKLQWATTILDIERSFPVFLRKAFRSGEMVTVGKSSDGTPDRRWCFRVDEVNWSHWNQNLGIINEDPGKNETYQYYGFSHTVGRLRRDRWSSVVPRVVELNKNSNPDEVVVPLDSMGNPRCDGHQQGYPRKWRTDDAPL
T1 sequence (Q8NER1 whole entry): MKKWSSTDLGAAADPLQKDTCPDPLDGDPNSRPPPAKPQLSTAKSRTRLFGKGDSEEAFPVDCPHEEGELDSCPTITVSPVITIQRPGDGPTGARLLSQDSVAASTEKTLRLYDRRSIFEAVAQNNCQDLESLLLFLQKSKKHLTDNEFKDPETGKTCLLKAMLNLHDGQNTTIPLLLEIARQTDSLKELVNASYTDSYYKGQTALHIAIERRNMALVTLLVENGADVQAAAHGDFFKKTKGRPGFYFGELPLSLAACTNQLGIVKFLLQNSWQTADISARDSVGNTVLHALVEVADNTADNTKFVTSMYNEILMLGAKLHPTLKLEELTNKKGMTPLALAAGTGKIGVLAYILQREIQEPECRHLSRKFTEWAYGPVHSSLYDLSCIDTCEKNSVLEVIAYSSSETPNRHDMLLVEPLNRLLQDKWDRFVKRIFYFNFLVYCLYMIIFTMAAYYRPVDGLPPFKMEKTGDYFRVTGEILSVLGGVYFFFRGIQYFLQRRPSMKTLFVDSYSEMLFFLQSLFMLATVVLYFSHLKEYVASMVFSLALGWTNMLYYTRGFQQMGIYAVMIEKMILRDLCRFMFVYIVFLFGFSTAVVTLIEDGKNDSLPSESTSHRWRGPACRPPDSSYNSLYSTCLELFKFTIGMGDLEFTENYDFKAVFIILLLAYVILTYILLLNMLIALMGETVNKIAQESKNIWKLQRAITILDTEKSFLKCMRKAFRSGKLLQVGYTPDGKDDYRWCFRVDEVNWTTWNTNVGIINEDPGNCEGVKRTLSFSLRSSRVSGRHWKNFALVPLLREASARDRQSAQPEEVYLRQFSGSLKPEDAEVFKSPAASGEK

SMILES	activity at VR1 ([1]; VR1)	effect on intracellular calcium [2]	effect on intracellular calcium [3]	pEC50 ([3]; HEK293 cells expressing hVR4, mean±s.e.mean, n=3-5, IA= inactive)	selectivity ([3]; VR4 versus VR1, conclusion in words)	effect on intracellular calcium [4]	EC50 [1] [nM]	Emax ([1]; VR1, compared to capsaicin and RTX)	EC50 [3] [nM]
CCCCCCCCCC(=O)O[C@@H]1[C@@H](C)[C@@]2(O)[C@@H](C=C(CO)C[C@@]3(O)C(=O)C(C)=C[C@@H]23)[C@@H]2C(C)(C)[C@]12OC(=O)CCCCCCCCC [4αPDD, 4α-phorbol-12,13-didecanoate]	inactive	without effect	increased intracellular calcium	5.73±0.06	VR4 selective agonist	without effect			
CCCCCCCCCCCCCC(=O)O[C@@H]1[C@@H](C)[C@@]2(O)[C@@H](C=C(CO)C[C@]3(O)C(=O)C(C)=C[C@@H]23)[C@@H]2C(C)(C)[C@]12OC(C)=O [PMA, phorbol 12-myristate 13-acetate]	partial agonist	without effect	increased intracellular calcium			without effect	13.8	0.46	229
C=C(C)C12CC(C)C34OC(Cc5ccccc5)(OC1C3C=C(COC(=O)Cc1ccc(O)c(OC)c1)CC1(O)C(=O)C(C)=CC14)O2 (centres unmarked) [RTX]							1.17		
